Assays:
[1] = Dynamic Vapor Sorption (DVS) / hygroscopicity; format: physicochemical; details: for DVS behaviour (figure legend): FIG. 17-21; for DVS result: Table 4; for Hygroscopicity (class): classified according to the European Pharmacopoeia; for DVS water uptake: from 80% to 95% r.h. (equilibrium reached); for Hygroscopicity (mass change): mass change in the range 0→85% r.h.; for DVS mass remaining higher than the original mass: upon lowering the relative humidity again (to 50% r.h.)
Description: DVS measurements (50%→0%→95%→50% r.h.) were performed on the samples of potassium salt 1, sodium salt 1, tromethamine salt 1, L-lysine salt and magnesium salt 2.

[2] = Crystallinity estimated from PXRD; format: physicochemical; parameters: key: +++ = high; ++ = good; + low
[3] = Aqueous solubility determination of salts; format: physicochemical; details: for pH (aqueous solubility): pH at aqueous solubility; for pH / Solubility: Table 10; for pH: pH of the filtrate; for Solubility: 500 rpm, free acid by HPLC
Description: Each salt was suspended in water and shaken for 24 h at 25° C. and 500 rpm. The resulting suspensions were filtered (0.1 μm filter). The obtained solid residues were analyzed by FT-Raman. The pH of the filtrate was measured, and the concentration of the free acid was determined by HPLC.

[4] = Quantitative whole body autoradiography, Sprague Dawley rats; format: in vivo; details: 1 hr, 50 mg/kg single oral
Description: (§1) Two studies were performed to evaluate the concentrations of Compound 1/metabolites in various tissues, including the eyes, following a single dose administration of radiolabeled Compound 1 (^14C-3-[5-(2-fluoro-phenyl)-[1,2,4]oxadiazol-3-yl]benzoic acid) to Sprague Dawley and Long Evans rats.
Sprague Dawley rats: As part of a quantitative whole body autoradiography (QWBA) study, 4 male and 4 female Sprague Dawley rats (albino) obtained from Charles River were administered a single oral gavage dose of 50 mg/kg ^14C-3-[5-(2-fluoro-phenyl)-[1,2,4]oxadiazol-3-yl]benzoic acid.
Animals were individually housed and certified rodent diet and water were provided ad libitum. Animals were acclimated for 8 days prior to dose administration. Environmental controls for the animal room were set to maintain a temperature of 18 to 26° C., a relative humidity of 50±20%, and a 12-hour light/12-hour dark cycle. The 12-hour dark cycle may have been interrupted to accommodate study procedures. Animals were fasted overnight through 4 hours postdose on the day of dosing. At dosing, the animals weighed 204 to 260 g and were approximately 9 to 11 weeks of age. […] The concentrations of ^14C-3-[5-(2-fluoro-phenyl)-[1,2,4]oxadiazol-3-yl]benzoic acid in the eye and related tissues are shown in the following table.

[5] = Quantitative whole body autoradiography, Long Evans rats; format: in vivo; details: 50 mg/kg single oral
Description: as §1
Long Evans rats: In a quantitative whole body autoradiography (QWBA) study, 8 male Long Evans rats (partially pigmented) obtained from Harlan were administered a single oral gavage dose of 50 mg/kg ^14C-Compound 1.
Animals were individually housed and certified rodent diet and water were provided ad libitum. Animals were acclimated for 3 days prior to dose administration. Environmental controls for the animal room were set to maintain a temperature of 18 to 26° C., a relative humidity of 50±20%, and a 12-hour light/12-hour dark cycle. As necessary, the 12-hour dark cycle was interrupted to accommodate study procedures. Animals were fasted overnight through 4 hours postdose on the day of dosing. At dosing, the animals weighed 160 to 178 g and were approximately 7 weeks of age. One animal/time point was sacrificed via exsanguination (cardiac puncture) under isoflurane anesthesia at 0.5, 1, 2, 4, 8, 24, 72, and 168 hours postdose.

O=C([O-])c1cccc(-c2noc(-c3ccccc3F)n2)c1.[K+] [Potassium salt 1]
DVS behaviour (figure legend) [1]: small irreversible water uptake | DVS result [1]: H not detected; DVS: hygroscopic sample, hydrate formation; (increase of the mass is less than 15% and equal or greater than 2%) | Hygroscopicity (class) [1]: (hygroscopic) (increase of the mass is less than 15% and equal or greater than 2%) | DVS water uptake [1]: roughly 3 wt. % | DVS mass loss ([1]; humidity decreased to 0% r.h. (equilibrium not reached)): ~6 wt. % | DVS water uptake (mass change) ([1]; humidity further increased to 80% r.h.): ~1.5 wt. % | Hygroscopicity (mass change) [1]: +7.81 wt % | DVS mass remaining higher than the original mass [1]: ~1 wt. % | Crystallinity [2]: + | Aqueous solubility ([3]; Table 2, water, 24 h, 25° C.): 57 mg/mL | Aqueous solubility ([3]; Table 4): 57.00 mg/mL | pH (aqueous solubility) ([3]; Table 4): 9.2 | pH [3]: 9.2 | Solubility ([3]; water, 24 h, 25° C.): 57 mg/mL

O=C([O-])c1cccc(-c2noc(-c3ccccc3F)n2)c1.[Na+] [Sodium salt 1]
DVS reversible mass change ([1]; 50% to 0% r.h. and again to 50% r.h.): 2 wt. % | DVS behaviour (figure legend) [1]: stepwise irreversible water uptake | DVS result [1]: acidic H not detected; DVS: hygroscopic sample, hydrate (increase of the mass is less than 15% and equal or greater than 2%) | Hygroscopicity (class) [1]: (very hygroscopic) (increase of the mass ≥15%) | DVS water uptake in one step ([1]; from 50% to 62% r.h.): Approximately 10 wt. % | DVS further water uptake, second step ([1]; humidity increased to 80% r.h. (equilibrium not reached)): ~6 wt. % | DVS water uptake up to 95% r.h. ([1]; humidity increased to 95% r.h.): 20 wt. % | Hygroscopicity (mass change) [1]: +19.52 wt % | DVS mass remaining higher than the original mass [1]: ~16 wt. % | Crystallinity [2]: ++ | Aqueous solubility ([3]; Table 2, water, 24 h, 25° C.): 22 mg/mL | Aqueous solubility ([3]; Table 4): 22.22 mg/mL | pH (aqueous solubility) ([3]; Table 4): 8.3 | pH [3]: 8.3 | Solubility ([3]; water, 24 h, 25° C.): 22 mg/mL

NC(CO)(CO)CO.O=C(O)c1cccc(-c2noc(-c3ccccc3F)n2)c1 [Tromethamine salt 1]
DVS behaviour (figure legend) [1]: large reversible water uptake with hysteresis | DVS result [1]: hygroscopic sample; Aqueous solubility (increase of the mass is less than 15% and equal or greater than 2%) | DVS weight loss to a value lower than the original mass ([1]; below 70% r.h. on the way down): 3 wt. % | Hygroscopicity (class) [1]: (hygroscopic) (increase of the mass is less than 15% and equal or greater than 2%) | DVS water uptake [1]: ~25 wt. % | DVS mass change ([1]; humidity decreased to 0% r.h. and then raised to 80% r.h.): no significant mass change | Hygroscopicity (mass change) [1]: +3.59 wt % | DVS overall weight loss ([1]; whole DVS cycle): 3% | Crystallinity [2]: +++ | Aqueous solubility ([3]; Table 2, water, 24 h, 25° C.): 18 mg/mL | pH [3]: 8.1 | Solubility ([3]; water, 24 h, 25° C.): 18 mg/mL

^14C-3-[5-(2-fluoro-phenyl)-[1,2,4]oxadiazol-3-yl]benzoic acid
Concentrations of radioactivity ([4]; Female, Exorbital lacrimal gland): 10.3 µg/g | Concentrations of radioactivity ([4]; Female, Harderian gland): 18.7 µg/g | Concentrations of radioactivity ([4]; Female, Intra-orbital lacrimal gland): 10.2 µg/g | Concentrations of radioactivity ([4]; Female, matrix cell blank (first line)): 1.41 µg/g | Concentrations of radioactivity ([4]; Male, Exorbital lacrimal gland): 21.1 µg/g | Concentrations of radioactivity ([4]; Male, Eye): 3.39 µg/g | Concentrations of radioactivity ([4]; Male, Harderian gland): 21.6 µg/g | Concentrations of radioactivity ([4]; Male, Intra-orbital lacrimal gland): 21.8 µg/g | Concentrations of radioactivity ([5]; Exorbital lacrimal gland, 0.5 hr): 28.0 µg/g | Concentrations of radioactivity ([5]; Exorbital lacrimal gland, 1 hr): 7.59 µg/g | Concentrations of radioactivity ([5]; Exorbital lacrimal gland, 2 hr): 22.4 µg/g | Concentrations of radioactivity ([5]; Exorbital lacrimal gland, 4 hr): 10.2 µg/g | Concentrations of radioactivity ([5]; Exorbital lacrimal gland, 8 hr): 8.09 µg/g | Concentrations of radioactivity ([5]; Exorbital lacrimal gland, 24 hr): BLQ (BLQ = below the limit of quantitation (<0.457 μg equivalents ^14C-3-[5-(2-fluoro-phenyl)-[1,2,4]oxadiazol-3-yl]benzoic acid)) | Concentrations of radioactivity ([5]; Exorbital lacrimal gland, 72 hr): BLQ (BLQ = below the limit of quantitation (<0.457 μg equivalents ^14C-3-[5-(2-fluoro-phenyl)-[1,2,4]oxadiazol-3-yl]benzoic acid)) | Concentrations of radioactivity ([5]; Eye (lens), 0.5 hr): BLQ (BLQ = below the limit of quantitation (<0.457 μg equivalents ^14C-3-[5-(2-fluoro-phenyl)-[1,2,4]oxadiazol-3-yl]benzoic acid)) | Concentrations of radioactivity ([5]; Eye (lens), 1 hr): BLQ (BLQ = below the limit of quantitation (<0.457 μg equivalents ^14C-3-[5-(2-fluoro-phenyl)-[1,2,4]oxadiazol-3-yl]benzoic acid)) | Concentrations of radioactivity ([5]; Eye (lens), 2 hr): BLQ (BLQ = below the limit of quantitation (<0.457 μg equivalents ^14C-3-[5-(2-fluoro-phenyl)-[1,2,4]oxadiazol-3-yl]benzoic acid)) | Concentrations of radioactivity ([5]; Eye (lens), 4 hr): BLQ (BLQ = below the limit of quantitation (<0.457 μg equivalents ^14C-3-[5-(2-fluoro-phenyl)-[1,2,4]oxadiazol-3-yl]benzoic acid)) | Concentrations of radioactivity ([5]; Eye (lens), 8 hr): BLQ (BLQ = below the limit of quantitation (<0.457 μg equivalents ^14C-3-[5-(2-fluoro-phenyl)-[1,2,4]oxadiazol-3-yl]benzoic acid)) | Concentrations of radioactivity ([5]; Eye (lens), 24 hr): BLQ (BLQ = below the limit of quantitation (<0.457 μg equivalents ^14C-3-[5-(2-fluoro-phenyl)-[1,2,4]oxadiazol-3-yl]benzoic acid)) | Concentrations of radioactivity ([5]; Eye, 0.5 hr): 4.59 µg/g | Concentrations of radioactivity ([5]; Eye, 1 hr): 1.78 µg/g | Concentrations of radioactivity ([5]; Eye, 2 hr): 3.62 µg/g | Concentrations of radioactivity ([5]; Eye, 4 hr): 2.69 µg/g | Concentrations of radioactivity ([5]; Eye, 8 hr): 2.08 µg/g | Concentrations of radioactivity ([5]; Eye, 24 hr): BLQ (BLQ = below the limit of quantitation (<0.457 μg equivalents ^14C-3-[5-(2-fluoro-phenyl)-[1,2,4]oxadiazol-3-yl]benzoic acid)) | Concentrations of radioactivity ([5]; Hardenian gland, 0.5 hr): 46.8 µg/g | Concentrations of radioactivity ([5]; Hardenian gland, 1 hr): 16.0 µg/g | Concentrations of radioactivity ([5]; Hardenian gland, 2 hr): 38.2 µg/g | Concentrations of radioactivity ([5]; Hardenian gland, 4 hr): 18.1 µg/g | Concentrations of radioactivity ([5]; Hardenian gland, 8 hr): 13.0 µg/g | Concentrations of radioactivity ([5]; Hardenian gland, 24 hr): 1.59 µg/g | Concentrations of radioactivity ([5]; Intra-orbital lacrimal gland, 0.5 hr): 28.8 µg/g | Concentrations of radioactivity ([5]; Intra-orbital lacrimal gland, 1 hr): 10.3 µg/g | Concentrations of radioactivity ([5]; Intra-orbital lacrimal gland, 2 hr): 25.2 µg/g | Concentrations of radioactivity ([5]; Intra-orbital lacrimal gland, 4 hr): 11.7 µg/g | Concentrations of radioactivity ([5]; Intra-orbital lacrimal gland, 8 hr): 10.3 µg/g | Concentrations of radioactivity ([5]; Intra-orbital lacrimal gland, 24 hr): BLQ (BLQ = below the limit of quantitation (<0.457 μg equivalents ^14C-3-[5-(2-fluoro-phenyl)-[1,2,4]oxadiazol-3-yl]benzoic acid)) | Concentrations of radioactivity ([5]; Uveal tract, 0.5 hr): 20.6 µg/g | Concentrations of radioactivity ([5]; Uveal tract, 1 hr): 10.4 µg/g | Concentrations of radioactivity ([5]; Uveal tract, 2 hr): 18.1 µg/g | Concentrations of radioactivity ([5]; Uveal tract, 4 hr): 6.09 µg/g | Concentrations of radioactivity ([5]; Uveal tract, 8 hr): 11.6 µg/g | Concentrations of radioactivity ([5]; Uveal tract, 24 hr): BLQ (BLQ = below the limit of quantitation (<0.457 μg equivalents ^14C-3-[5-(2-fluoro-phenyl)-[1,2,4]oxadiazol-3-yl]benzoic acid))

From patent US10233161B2, “Pharmaceutical compositions and salts of a 1,2,4-oxadiazole benzoic acid” (PTC Therapeutics, Inc., priority 2014, dated 2019)
